Measured values as given in PMC8426237, “A first-in-human phase I study of TAS0728, an oral covalent binding inhibitor of HER2, in patients with advanced solid tumors with HER2 or HER3 aberrations” (Investigational New Drugs, 2021).

Experiments:
[1] = Plasma pharmacokinetics after single and multiple oral doses; type: in vivo, human
Procedure: Multiple blood samples were collected on day 1 of cycles 1 and 2 (i.e., pre-dose, post-dose at +0.5 h, +1 h, +1.5 h, +2 h, +3 h, +4 h, +6 h, +8 h, +12 h) for analysis of plasma PK after administration of single and multiple doses respectively; urine samples were collected 0–3 h prior to morning dose and 0–12 h post-morning dose on day 1 of cycle 1.
Continuous data were summarized with frequency, median, range, mean, standard deviation and standard error if relevant. Categorical data were presented as frequencies and percentages. 95% confidence intervals (CI) were calculated following the exact method. A p value <0.05 was considered statistically significant. Data were analyzed using the SAS® system software version 9.3 for Windows® (Statistical Analysis System, Cary, NC, USA). The PK data were analyzed using Phoenix WinNonlin (Version 6.4 or later, Certara L.P; Princeton New Jersey, United States). All analyses were descriptive and exploratory; no formal statistical testing was conducted.

HER2 = system: HER2; parameters: method as in PMID 30787176; conditions: cited from earlier work
[2] = planned dose 50 mg, cycle 1, day 1, mean, n 3
[3] = planned dose 50 mg, cycle 1, day 1, n 3
[4] = planned dose 100 mg, cycle 1, day 1, mean, n 3
[5] = planned dose 100 mg, cycle 1, day 1, n 3
[6] = planned dose 100 mg, cycle 2, day 1, mean, n 2
[7] = planned dose 100 mg, cycle 2, day 1, mean, n 3
[8] = planned dose 100 mg, cycle 2, day 1, n 3
[9] = planned dose 150 mg, cycle 1, day 1, mean, n 5
[10] = planned dose 150 mg, cycle 1, day 1, mean, n 6
[11] = planned dose 150 mg, cycle 1, day 1, n 6
[12] = planned dose 150 mg, cycle 2, day 1, mean, n 2
[13] = planned dose 150 mg, cycle 2, day 1, n 2
[14] = planned dose 200 mg, cycle 1, day 1, mean, n 6
[15] = planned dose 200 mg, cycle 1, day 1, mean, n 7
[16] = planned dose 200 mg, cycle 1, day 1, n 7
[17] = planned dose 200 mg, cycle 2, day 1, mean, n 2
[18] = planned dose 200 mg, cycle 2, day 1, n 2

Compound: C=CC(=O)N1CCC[C@@H](n2nc(C(=O)Nc3ccc(CC(=O)N(C)C)c(C)c3C)c3c(N)ncnc32)C1 [TAS0728]
- Accumulation of TAS0728 exposure ([1]; BID multiple-dose administration): No significant accumulation
- t1/2 ([1]; cycle 1, day 1, all dose levels): approximately 2.0 h
- AUC0–12 [1, 2]: 2437 ng·h/mL
- AUCinf [1, 2]: 2470 ng·h/mL
- AUClast [1, 2]: 2415 ng·h/mL
- Cmax [1, 2]: 1162 ng/mL
- t1/2 [1, 2]: 1.96 h
- Tmax maximum [1, 3]: 1.58 h
- Tmax median [1, 3]: 0.50 h
- Tmax minimum [1, 3]: 30 min
- AUC0–12 [1, 4]: 5669 ng·h/mL
- AUCinf [1, 4]: 5765 ng·h/mL
- AUClast [1, 4]: 5626 ng·h/mL
- Cmax [1, 4]: 2039 ng/mL
- t1/2 [1, 4]: 1.90 h
- Tmax maximum [1, 5]: 3.05 h
- Tmax median [1, 5]: 0.58 h
- Tmax minimum [1, 5]: 31.8 min
- AUC0–12 [1, 6]: 5475 ng·h/mL
- R(AUC0–12), observed accumulation ratio of AUC0–12 [1, 6]: 0.87
- t1/2 [1, 6]: 2.17 h
- AUClast [1, 7]: 4276 ng·h/mL
- Cmax [1, 7]: 1389 ng/mL
- R (Cmax), observed accumulation ratio of Cmax [1, 7]: 0.56
- Tmax maximum [1, 8]: 6.20 h
- Tmax median [1, 8]: 3.03 h
- Tmax minimum [1, 8]: 55.2 min
- AUC0–12 [1, 9]: 12,946 hr*ng/mL
- AUCinf [1, 9]: 13,158 hr*ng/mL
- t1/2 [1, 9]: 1.91 h
- AUClast [1, 10]: 19,523 hr*ng/mL
- Cmax [1, 10]: 5402 ng/mL
- Tmax maximum [1, 11]: 1.05 h
- Tmax median [1, 11]: 0.59 h
- Tmax minimum [1, 11]: 30 min
- AUC0–12 [1, 12]: 14,782 hr*ng/mL
- AUClast [1, 12]: 14,782 hr*ng/mL
- Cmax [1, 12]: 3460 ng/mL
- R (Cmax), observed accumulation ratio of Cmax [1, 12]: 0.91
- R(AUC0–12), observed accumulation ratio of AUC0–12 [1, 12]: 1.61
- t1/2 [1, 12]: 3.11 h
- Tmax maximum [1, 13]: 1.58 h
- Tmax median [1, 13]: 1.30 h
- Tmax minimum [1, 13]: 61.2 min
- AUC0–12 [1, 14]: 14,653 hr*ng/mL
- AUCinf [1, 14]: 15,046 hr*ng/mL
- t1/2 [1, 14]: 2.05 h
- AUClast [1, 15]: 15,108 hr*ng/mL
- Cmax [1, 15]: 5091 ng/mL
- Tmax maximum [1, 16]: 3.92 h
- Tmax median [1, 16]: 1.00 h
- Tmax minimum [1, 16]: 27 min
- AUC0–12 [1, 17]: 11,459 hr*ng/mL
- AUClast [1, 17]: 11,248 hr*ng/mL
- Cmax [1, 17]: 2565 ng/mL
- R (Cmax), observed accumulation ratio of Cmax [1, 17]: 0.96
- R(AUC0–12), observed accumulation ratio of AUC0–12 [1, 17]: 1.18
- t1/2 [1, 17]: 3.13 h
- Tmax maximum [1, 18]: 3.25 h
- Tmax median [1, 18]: 1.88 h
- Tmax minimum [1, 18]: 31.2 min
- Specificity for HER2 over wild-type EGFR (HER2): high specificity for HER2 over wild-type EGFR
- Inhibitory effect against HER2 and HER3 versus EGFR (HER2; nonclinical studies): much greater against HER2 and HER3 than against EGFR
